In US5863716A, “Treatment of plasmodium” (The Leland Stanford Junior University Board of Trustees, priority 1997, dated 1999):

What was measured:
Toxicity in mice = settings: mouse, in vivo; over 16 days; preliminary studies; read-out: dose with no significant toxicity
Procedure: Preparation of test compounds, toxicity and pharmacokinetics in mice: PPMP and its derivatives are made up as a stock solution in ethanol, diluted into sterile saline, warmed up to 37° C. and delivered once or several times a day, either intraperitoneally (i.p.) or intravenously (i.v.). The animals are monitored on a daily basis for signs of toxicities which (from mild to extreme) include abnormal grooming behavior, loss or thinning of hair, enlargement of spleen and loss of activity. 0 to 30 micrograms PPMP/per gm of mouse body weight is administered. Effective anti-parasite concentrations of PPMP are predicted to be at ~2 micrograms of PPMP/gm of mouse body weight. Based on preliminary studies, 8-10 micrograms of PPMP per gram of (mouse) body weight have no significant toxicity over 16 days. Compounds and levels found to be non toxic over 30 days will be further tested for their effects on infections of P. yoelii and P. chabaudi.

DNA synthesis = assay: Effect on DNA synthesis; format: cell-based
protein synthesis = assay: Effect on protein synthesis; format: cell-based
sphingomyelin synthase = assay: Inhibition of sphingomyelin biosynthesis in hypotonically lysed infected erythrocytes and fractions; format: biochemical, Plasmodium falciparum
Procedure: 1×10^8 infected cells 24 h after invasion were washed serum-free in RPMI 1640 and preincubated for thirty min at 37° C. in 1 ml of RPMI 1640 containing 0-5 μM or 0-500 μM of PPMP. (C6-NBD-ceramide (N-[7-(4-nitrobenzo-2-oxa-1,3-diazide)]-6-aminocaproyl-D-erythro-sphingosine) was added to each sample at a final concentration of 5 μM, the samples further incubated for 30 min at 37° C. and cellular lipids extracted. C6-NBD-sphingomyelin was resolved by TLC and quantitated by fluorescence spectrophotometry as described previously. Bligh, E. G. and Dyer, W. Y. (1959) A rapid method for total lipid extraction and purification., Can. J. Biochem. Physiol. 37: 911-917. Haldar, K., Uyetake, L., Ahori, N., Elmendorf, H. G. and Lu, W-1. (1991) The accumulation and metabolism of a fluorescent ceramide derivative in Plasmodium falciparum--infected erythrocytes., Mo. Biochem. Parasitol. 49: 143-156. Elmendorf, H. G. and Haldar, K. (1994) Plasmodium falciparum exports the Golgi marker sphingomyelin synthase into a tubovesicular network in the cytoplasm of mature erythrocytes., J. Cell Biol. 124: 449-462. Each value obtained represented the mean of triplicate determinations from five experiments. The arrow bars indicate the standard deviations. The results are depicted in FIG. 1.
Cells were washed serum-free in PBS and intact cells were incubated in PBS. Cells were lysed in 10 volumes of hypotonic buffer. Pellets and supernatants were separated by centrifugation at 10^4 ×G for 10 min at 4° C. Inhibition of sphingomyelin biosynthetic activity was carried out as described in Example 1. Glutamate dehydrogenase, a parasite cytosolic activity, was assayed using 10 μM alpha-ketoglutarate and 0.1 μM NADPH for 1 h at 37° C. by measuring the absorption at 340 nm in a spectrophotometer. The following table indicates the results

P. chabaudi = assay: Single cycle of expansion in culture, mouse malaria; format: cell-based
Source text: (§1) The human malaria parasite P. falciparum can be grown in monkeys but not in rodents. However, since primates are expensive, rodents are used as a animal first screen. P. yoelii and P. chabaudi are commonly used strains of mouse malaria.

P. yoelii = assay: as above; format: cell-based
Source text: as §1

CCCCCCCCCCCCCCCC(=O)N[C@H](CN1CCOCC1)[C@H](O)c1ccccc1 (relative stereo) [PPMP, dl-threo-1-phenyl-2-palmitoylamino-3-morpholino-1-propanol]
NOAEL at 384 h (Toxicity in mice): 8 to 10 mg/kg | inhibition of DNA synthesis (DNA synthesis): not inhibitory | inhibition of protein synthesis (protein synthesis): not inhibitory | inhibition of sphingomyelin biosynthesis at 5 μM PPMP [%] (sphingomyelin synthase; hypotonic lysates): 33% | inhibition of sphingomyelin biosynthesis at 5 μM PPMP [%] (sphingomyelin synthase; pellet of lysate (10^4 x G)): 30% | inhibition of sphingomyelin biosynthesis at 5 μM PPMP [%] (sphingomyelin synthase; supernatant of lysate (10^4 x G)): 3% | effect on parasite in a single cycle of expansion in culture (P. chabaudi): inhibited | effect on parasite in a single cycle of expansion in culture (P. yoelii): inhibited
